Laboratory results reported in patent US7300918B2, “Method of producing vaccines from protein signal oligopeptides” (priority 1994, dated 2007).
Where “and” joins values, the source holds several entries; their conditions need not be identical. Equal values may be shown once.

Tested on: Hep G2 cells
Test: Cholesterol measurement in Hep G2 cells exposed to HMG CoA Reductase peptides
Assay type: cell-based, human
Settings: 24 hrs; for Cholesterol Content Cell / Cholesterol Content Media: triplicate; for Total Cholesterol: cell + media
Description: Cholesterol Measurement in Hep G2 Cells Exposed to HMG CoA Reductase Peptides:
A. Selection of therapeutic oligopeptides for these expenments • i. The peptides were selected according to the method described herein. In brief, 6 oligopeptides corresponding to the hydrophilic amino acid maxima of human hydroxy-methyl-glutaryl-CoA-reductase were selected according to the maximum hydrophilicity determining algorithm described herein. The following sequences were selected. • I. N-SQDEVREN-C (SEQ ID NO:42) • II. N-ELSRESREGR-C (SEQ ID NO:44) • III. N-RVLEEEENK-C (SEQ ID NO:46) • IV. N-QKCDSVEE-C (SEQ ID NO:56) • V. N-EETGINRERKVE-C (SEQ ID NO:60) • VI. N-EPEIELPREPRPNEE-C (SEQ ID NO:64)
B. Materials and methods • i. Hep G2 cells were seeded into six-well dishes at 30,0000 cells/well in MEM-supplemented media with 10% FBS. Cells were grown to near confluency and exposed to • I. media alone • II. Mevastatin 5ΦMol (Cholestrol-lowering Statin drug) and, • III. HMG CoA Reductase peptides at 1, 10 and 100 ΦMol. • ii. All treatments were carried out in triplicate. After 24 hrs the media was removed and saved. • iii. The cells were washed with 1 ml of PBS and combined with the media. The cells were harvested with 1 ml of 0.1 N NaOH. • iv. Samples, both media and cells, were saponified with 0.5 ml 50% KOH, 3 ml ethanol, separately at 80EC for 2 hrs. • v. After cooling, the samples were extracted twice with petroleum ether and washed with NaOH. • vi. The samples were the dried under nitrogen and suspended in 200 Φl ethanol. • vii. 50 Φl of this suspension was used for determination of cholesterol. Cholesterol was determined in the samples and standards using colorimetric assay (Sigma Kit). • viii. Protein was determined by Lowry's method and the results were expressed as Φgm cholesterol/mg protein. C. Results • i.

Compound | Cholesterol Lowering in % of Control (1 ΦM) | Cholesterol Content Cell (1 ΦM) | Cholesterol Content Media (1 ΦM) | Cholesterol Lowering in % of Control (10 ΦM) | Cholesterol Content Cell (10 ΦM) | Cholesterol Content Media (10 ΦM) | Cholesterol Lowering in % of Control (100 ΦM) | Cholesterol Content Cell (100 ΦM) | Cholesterol Content Media (100 ΦM) | Total Cholesterol (1 ΦM) | Total Cholesterol (10 ΦM) | Total Cholesterol (100 ΦM) | Cholesterol Lowering in % of Control (5 ΦM) | Cholesterol Content Cell (5 ΦM) | Cholesterol Content Media (5 ΦM) | Total Cholesterol (5 ΦM)
N-ELSRESREGR-C [Peptide 2, oligopeptide corresponding to a hydrophilic amino acid maximum of human hydroxy-methyl-glutaryl-CoA-reductase] | 29.0% | 94.0 ± 8.3 Φ gm/mg protein | 64.3 ± 4.2 Φ gm/mg protein | 33.0% | 85.0 ± 8.4 Φ gm/mg protein | 63.7 ± 9.5 Φ gm/mg protein | 34.0% | 86.0 ± 4.7 Φ gm/mg protein | 59.0 ± 6.0 Φ gm/mg protein | 158.3 ± 6.3 Φ gm/mg protein | 148.6 ± 11.8 Φ gm/mg protein | 146.9 ± 8.8 Φ gm/mg protein |  |  |  | 
N-QKCDSVEE-C [Peptide 4, oligopeptide corresponding to a hydrophilic amino acid maximum of human hydroxy-methyl-glutaryl-CoA-reductase] | 8.0% | 134.7 ± 3.2 Φ gm/mg protein | 50.4 ± 2.5 Φ gm/mg protein | 10.0% | 126.1 ± 4.2 Φ gm/mg protein | 49.0 ± 1.0 Φ gm/mg protein | 9.0% | 127.7 ± 9.3 Φ gm/mg protein | 53.8 ± 0.5 Φ gm/mg protein | 184.3 ± 5.5 Φ gm/mg protein | 175.2 ± 3.8 Φ gm/mg protein | 181.7 ± 9.3 Φ gm/mg protein |  |  |  | 
N-SQDEVREN-C [Peptide 1, oligopeptide corresponding to a hydrophilic amino acid maximum of human hydroxy-methyl-glutaryl-CoA-reductase] | 28.0% | 92.5 ± 4.7 Φ gm/mg protein | 65.2 ± 4.0 Φ gm/mg protein | 30.0% | 88.6 ± 1.6 Φ gm/mg protein | 60.6 ± 0.5 Φ gm/mg protein | 30.0% | 94.0 ± 4.0 Φ gm/mg protein | 61.1 ± 2.4 Φ gm/mg protein | 158.7 ± 5.6 Φ gm/mg protein | 149.1 ± 2.0 Φ gm/mg protein | 155.3 ± 6.4 Φ gm/mg protein |  |  |  | 
N-EPEIELPREPRPNEE-C [Peptide 6, oligopeptide corresponding to a hydrophilic amino acid maximum of human hydroxy-methyl-glutaryl-CoA-reductase] | 4.0% | 144.3 ± 7.5 Φ gm/mg protein | 47.4 ± 0.5 Φ gm/mg protein | 8.0% | 136.0 ± 12.2 Φ gm/mg protein | 48.0 ± 3.4 Φ gm/mg protein | 9.0% | 132.0 ± 4.4 Φ gm/mg protein | 50.4 ± 1.0 Φ gm/mg protein | 192.0 ± 8.0 Φ gm/mg protein | 184.0 ± 8.4 Φ gm/mg protein | 182.4 ± 4.8 Φ gm/mg protein |  |  |  | 
N-RVLEEEENK-C [Peptide 3, oligopeptide corresponding to a hydrophilic amino acid maximum of human hydroxy-methyl-glutaryl-CoA-reductase] | 10.0% | 137.3 ± 4.5 Φ gm/mg protein | 64.0 ± 2.7 Φ gm/mg protein | 10.0% | 135.0 ± 4.5 Φ gm/mg protein | 65.5 ± 4.7 Φ gm/mg protein | 10.0% | 135.0 ± 7.0 Φ gm/mg protein | 65.5 ± 1.4 Φ gm/mg protein | 201.3 ± 3.3 Φ gm/mg protein | 200.7 ± 9.0 Φ gm/mg protein | 200.5 ± 5.4 Φ gm/mg protein |  |  |  | 
N-EETGINRERKVE-C [Peptide 5, oligopeptide corresponding to a hydrophilic amino acid maximum of human hydroxy-methyl-glutaryl-CoA-reductase] | 1.5% | 140.7 ± 8.6 Φ gm/mg protein | 56.8 ± 1.0 Φ gm/mg protein | 0.0% | 149.0 ± 4.4 Φ gm/mg protein | 50.7 ± 1.0 Φ gm/mg protein | 0.0% | 161.7 ± 23.5 Φ gm/mg protein | 48.0 ± 1.6 Φ gm/mg protein | 197.0 ± 9.2 Φ gm/mg protein | 200.0 ± 5.0 Φ gm/mg protein | 210.0 ± 25.0 Φ gm/mg protein |  |  |  | 
CC[C@H](C)C(=O)O[C@H]1CCC=C2C=C[C@H](C)[C@H](CC[C@@H]3C[C@@H](O)CC(=O)O3)[C@H]21 [Mevastatin, reference compound] |  |  |  |  |  |  |  |  |  |  |  |  | 19.0% and 18.0% | 125.0 ± 4.6 Φ gm/mg protein and 124.4 ± 4.4 Φ gm/mg protein | 37.5 ± 3.0 Φ gm/mg protein and 57.5 ± 5.2 Φ gm/mg protein | 162.6 ± 7.6 Φ gm/mg protein and 182.0 ± 7.0 Φ gm/mg protein
